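Where inhibition never reached the appropriate level, the endpoint shown equals the highest concentration tested. Otherwise, values were interpolated linearly from a five-concentration, 48-hour dose response in 96-well plates. The concentration for 50% growth inhibition is given as GI50. TGI marks complete inhibition of growth.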

Test systems include SK-MEL-2 melanoma; NCI-H226 lung; HCT-116 colon; TK-10 renal; U251 CNS; 786-0 renal; MOLT-4 leukemia; A498 renal; IGROV1 ovarian; M14 melanoma.
Common to all, as to assay: DTP human tumour cell line panel, 48 h

For the compound `COc1ccc2c(c1)C(=O)c1c-2c(Nc2cccc(C(C)=O)c2)nc2ccccc12`, the GI50 in the assay with SK-MEL-2 melanoma was 16.4 µM; in the assay on NCI-H226 lung, 11.7 µM; in the assay on HCT-116 colon, 2.64 µM; in the assay with TK-10 renal it was 24.8 µM; in the assay on U251 CNS, 3.09 µM; with 786-0 renal it was 3.78 µM. Also, the GI50 in the assay with MOLT-4 leukemia was 64.6 µM; in the assay on A498 renal, 3.09 µM; in the assay on IGROV1 ovarian it was 3.67 µM; with M14 melanoma, 15.5 µM. Moreover, the total growth inhibition concentration (TGI) in the assay with SK-MEL-2 melanoma amounted to 53.5 µM; in the assay on NCI-H226 lung, 35.8 µM; in the assay on HCT-116 colon, 10.9 µM; with TK-10 renal it was 65 µM; in the assay on U251 CNS, 12.3 µM; in the assay with 786-0 renal, 14 µM. Besides, the TGI with MOLT-4 leukemia was above 100 µM; in the assay with A498 renal it was 15 µM; with IGROV1 ovarian, 18.4 µM; in the assay with M14 melanoma it was 46.5 µM.
Take `Nc1c(F)cc(-c2nc3cc(F)ccc3[se]2)cc1Br`: the GI50 is 75 µM in the assay with SK-MEL-2 melanoma; 0.0484 µM in the assay on NCI-H226 lung; 0.025 µM in the assay with HCT-116 colon; 0.17 µM in the assay with TK-10 renal; 12 µM in the assay with U251 CNS; 10.6 µM in the assay with 786-0 renal. In addition, the GI50 in the assay with MOLT-4 leukemia is above 46.5 µM; in the assay on A498 renal, 5.4 µM; in the assay with IGROV1 ovarian it was 0.0127 µM; in the assay on M14 melanoma it was 16.5 µM. The concentration for total growth inhibition (TGI) in the assay on SK-MEL-2 melanoma was above 100 µM; with NCI-H226 lung it was 2.06 µM; in the assay on HCT-116 colon, 13 µM; in the assay on TK-10 renal it was 0.61 µM; in the assay with U251 CNS, 70.5 µM; in the assay on 786-0 renal, 50.4 µM. Besides, the TGI in the assay on MOLT-4 leukemia was above 100 µM; with A498 renal it was 36.9 µM; with IGROV1 ovarian it was 27.4 µM; in the assay on M14 melanoma, above 100 µM.
Regarding `COC(=O)[C@]12CC[C@@H](C)[C@H](C)[C@@H]1C1=CC[C@@H]3[C@@]4(C)C(C=O)=C[C@@](C)(COC(=O)/C=C/c5ccccc5)[C@@H]4[C@H](O)C[C@@]3(C)[C@]1(C)CC2`, the GI50 in the assay on SK-MEL-2 melanoma was 3.21 µM; in the assay with NCI-H226 lung it was 2.36 µM; in the assay on HCT-116 colon, 3.06 µM; in the assay on TK-10 renal, 6.74 µM; in the assay on U251 CNS, 3.75 µM; in the assay on 786-0 renal, 5.01 µM. The GI50 is 2.09 µM in the assay on MOLT-4 leukemia, 4.8 µM in the assay with A498 renal, 4.34 µM in the assay with IGROV1 ovarian and 3.33 µM in the assay on M14 melanoma. Moreover, the TGI with SK-MEL-2 melanoma was 12.8 µM; with NCI-H226 lung, 9.66 µM; in the assay on HCT-116 colon, 13.7 µM; in the assay on TK-10 renal it was 39.3 µM; in the assay with U251 CNS it was 16.2 µM; with 786-0 renal it was 42.7 µM. Further, the total growth inhibition concentration (TGI) came out at 7.36 µM with MOLT-4 leukemia, 23.7 µM with A498 renal, 66.4 µM in the assay with IGROV1 ovarian and 17.3 µM in the assay with M14 melanoma.
In the case of `COc1cc2c(cc1C)NC(=O)/C2=C\c1c[nH]c2ccccc12`, the GI50 in the assay on SK-MEL-2 melanoma was 4.04 µM; in the assay with NCI-H226 lung, 15.1 µM; in the assay with HCT-116 colon, 21.1 µM; with TK-10 renal it was 14.1 µM; with U251 CNS, 13.6 µM; with 786-0 renal, 17.8 µM. The GI50 was 5.87 µM with MOLT-4 leukemia, 11.2 µM with A498 renal, 4.44 µM in the assay on IGROV1 ovarian and 12.7 µM in the assay with M14 melanoma. The TGI in the assay with SK-MEL-2 melanoma turned out to be 25 µM; in the assay with NCI-H226 lung, 41.6 µM; in the assay on HCT-116 colon, 90.1 µM; in the assay with TK-10 renal it was 46.5 µM; in the assay with U251 CNS it was 37.9 µM; in the assay on 786-0 renal it was 49.2 µM. For the same compound, the TGI with MOLT-4 leukemia is 43.5 µM; with A498 renal, 26.9 µM; with IGROV1 ovarian, 33.6 µM; with M14 melanoma, 46.1 µM.
`COC(=O)C1C=CCON2CCc3c(n(S(=O)(=O)c4ccccc4)c4ccccc34)C12` (stereo not given): the concentration for total growth inhibition (TGI) in the assay with SK-MEL-2 melanoma is above 100 µM; in the assay on NCI-H226 lung, above 91.1 µM; with HCT-116 colon, above 80.7 µM; in the assay with TK-10 renal, above 100 µM; in the assay on U251 CNS it was above 42.1 µM; in the assay on 786-0 renal it was above 100 µM. The TGI with MOLT-4 leukemia was above 71 µM; in the assay with A498 renal, above 100 µM; with IGROV1 ovarian, above 68.2 µM; in the assay on M14 melanoma, above 100 µM.
In the case of `COc1cccc(NC(=O)C(=O)C2C=CCS2(=O)=O)c1` (stereo not given), the concentration for total growth inhibition (TGI) in the assay on SK-MEL-2 melanoma, with NCI-H226 lung, in the assay on HCT-116 colon, in the assay with TK-10 renal, with U251 CNS and in the assay with 786-0 renal was above 100 µM throughout. Also, the TGI with MOLT-4 leukemia, with A498 renal, with IGROV1 ovarian and in the assay on M14 melanoma was above 100 µM throughout.
For `Nc1ncnc2c1ccn2[C@@H]1O[C@H]([C@H](O)c2ccc(Cl)c(F)c2)[C@@H](O)[C@H]1O`, the GI50 in the assay on SK-MEL-2 melanoma was above 100 µM; in the assay with NCI-H226 lung, 34.5 µM; in the assay on HCT-116 colon, above 100 µM; in the assay on TK-10 renal it was above 100 µM; with U251 CNS, above 100 µM; with 786-0 renal it was above 100 µM. For the same compound, the GI50 is above 100 µM with MOLT-4 leukemia, 52.4 µM in the assay with A498 renal, 48.6 µM with IGROV1 ovarian and above 100 µM with M14 melanoma. The TGI with SK-MEL-2 melanoma, in the assay on NCI-H226 lung, in the assay with HCT-116 colon, in the assay with TK-10 renal, with U251 CNS and in the assay on 786-0 renal was above 100 µM in each case. Also, the total growth inhibition concentration (TGI) in the assay on MOLT-4 leukemia, with A498 renal, with IGROV1 ovarian and in the assay with M14 melanoma was above 100 µM throughout.
For `CC1CC[P+](c2ccccc2)(c2ccccc2)CC1`, the TGI with SK-MEL-2 melanoma, in the assay on NCI-H226 lung, with HCT-116 colon, with TK-10 renal, in the assay with U251 CNS and in the assay with 786-0 renal was above 100 µM in each case. Moreover, the TGI in the assay with MOLT-4 leukemia, with A498 renal, in the assay with IGROV1 ovarian and in the assay with M14 melanoma was above 100 µM in each case.

(Values after PubChem BioAssay (NCI).)
